Kd data for one compound are collected here from PMC8145327, “S100P Interacts with p53 while Pentamidine Inhibits This Interaction” (Biomolecules, 2021).

The target of this assay is T1, S100P (Homo sapiens, UniProt P25815).
T1 construct: 15N-labeled human S100P (95 amino acid residues)
T1 sequence (P25815 1-95): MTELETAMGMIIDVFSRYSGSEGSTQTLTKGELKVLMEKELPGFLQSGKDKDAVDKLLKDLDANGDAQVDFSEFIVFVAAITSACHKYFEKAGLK
The assay is described as follows: 1H-15N HSQC NMR titration (chemical shift perturbation). The class given is binding.

On to `N=C(N)c1ccc(OCCCCCOc2ccc(C(=N)N)cc2)cc1` [pentamidine], for which the Kd was 48.7 µM.

By Kd is commonly meant a measure of binding affinity in units of concentration.
